Test results as given in patent US11850266B2, “Cardiomyocytes and compositions and methods for producing the same” (President and Fellows of Harvard College, priority 2019, dated 2023).

How the values were obtained:
Format in all cases: cell-based, human
[1] = test system: BJRiPS-derived cardiomyocytes; assay: Example 3 preliminary qPCR of maturation genes in BJRiPS-derived cardiomyocytes
Protocol: The BJRiPS cell line was used to generate preliminary data. BJRiPS cells were differentiated into cardiomyocytes according to previously published protocols (6). After the onset of beating (around day 10), cardiomyocytes were treated with vehicle (DMSO) or different concentrations of rapamycin, Torin1, or Torin2 for different time periods. Beating rate was counted manually. Some cells were harvested after 5-7 days of treatment for flow cytometry analysis. Other cells were harvested after 7 days of treatment for qPCR.

[2] = test system: iPSC-derived cardiomyocytes; assay: NanoString PanCancer Pathways Panel gene expression; details: Torin1 200 nM 1 week, Gibco iPS-CMs, FIG. 7G
Protocol: Gene expression analysis was performed using NanoString technology which employs an optical counting method of fluorescently barcoded RNA according to the manufacturer's instructions. The nCounter PanCancer Pathways Panel was selected to provide a multiplex analysis of 770 genes from several growth and cell cycle-related pathways, including cell cycle, apoptosis, Wnt, transcriptional regulation, PI3K, and TGF-β. This panel was selected to provide a multiplex analysis of pathways associated with cell cycle regulation, metabolism, quiescence and senescence. Cardiomyocytes were differentiated in a 12-well plate then cardiomyocytes were treated with Torin1 (200 nM) or vehicle (DMSO) starting ˜2 days after onset of beating for 1 week (days 9-16 for this batch). After completion of Torin1 treatment, cells were switched back to maintenance media (RPMI+B27+insulin). Beginning on day 18 of differentiation, 10% fetal bovine serum (FBS) was added to half of the wells per treatment group and FBS treatment was continued for 4 days (until day 22 of differentiation). […] Data were analyzed using nSolver 4.0 software with the Advanced Analysis Module 2.0 with normalization to internal housekeeping genes including in the panel to perform unsupervised hierarchical clustering, differential expression analyses, and pathway scoring using the R statistical package.

[3] = test system: mTORC1 (S6K) and mTORC2 (Akt); assay: Western analysis of phosphorylation downstream of mTORC1 and mTORC2 in iPSC-derived cardiomyocytes
Protocol: Beating cardiomyocytes were treated with Torin1 (200 nM, unless otherwise noted) or vehicle (0.02% dimethylsulfoxide (DMSO)) beginning at ˜2 days after onset of beating for 7 days (media changed with fresh Torin1 or DMSO every 2-3 days), unless otherwise noted. After Torin1 treatment, media was switched back to RPMI/B27/insulin and maintained with media change every 2-3 days until endpoint assay.
Cells were lysed with lysis buffer (1% Triton X, 0.35% Na-deoxycholate, 1 mM EDTA, 1% protease inhibitor cocktail (Sigma), 1% phosphatase inhibitor cocktail 2 (Sigma), 1% phosphatase inhibitor cocktail 3 (Sigma), 1 mM phenylmethylsulfonyl fluoride (PMSF)) and total protein was measured with the Pierce BCA Protein Assay Kit. Samples with equal total protein quantities (prepared in Laemmli Sample Buffer (Bio-Rad)) were loaded into a Mini-Protean TGX Precast Gel (Bio-Rad) and electrophoresed for 1 hour at 100 V before transfer to a PVDF membrane using the Trans-Blot Turbo Transfer System (Bio-Rad). The Precision Plus Protein Dual Color Standards molecular weight ladder was used to estimate molecular weight of detected bands (Bio-Rad). Membranes were blocked with 5% milk or bovine serum albumin then incubated with the primary antibody (Table 2) overnight at 4 degrees C. followed by incubation with the horseradish peroxidase-conjugated secondary antibody (Table 2) for 1 hour at room temperature. The Amersham ECL Western Blotting Detection kit was used to detect the protein signal by chemiluminescence, and band densities were quantified using ImageJ software (NIH).

[4] = test system: iPSC-derived cardiomyocytes; assay: Seahorse Mito Stress Test and Glycolysis Stress Test
Protocol: The Seahorse XFe96 Analyzer (Agilent) was used to assess metabolic activity of differentiated cardiomyocytes. Seahorse XFe96 cell culture microplates were coated with Geltrex (1:100 dilution in DMEM:F12). Cardiomyocytes were differentiated as described above then treated with DMSO or Torin1 (200 nM) starting at approximately two days after onset of beating for one week (˜days 9-16 of differentiation for most batches). After treatment, all cells were changed back into RPMI/B27/insulin media until assay preparation (performed at or before day 35 of differentiation). One day prior to assay, cardiomyocytes were dissociated with 0.1% trypsin-EDTA for 5 minutes then neutralized with RPMI/B27/insulin+10% fetal bovine serum (FBS) and plated at a density of 20,000-30,000 cells per well. Cardiomyocytes were maintained in serum-containing medium overnight to facilitate cell adhesion. One hour prior to the assay, the plates were changed to Seahorse assay media (XF Base Medium supplemented with 25 mM glucose, 1 mM sodium pyruvate, and 1 mM GlutaMAX), then incubated at 37 degrees C. in a CO2-free incubator with Seahorse assay media. […] Following measurement of the oxygen consumption rate (OCR) and extracellular acidification rate (ECAR) in response to serial injections of the stress test kit compounds, final cell density was determined using a CyQUANT assay (Thermo Fisher Scientific) to account for cell loss during washes. Cardiomyocytes not used for the Seahorse assay but at a similar day of differentiation were used to create a standard curve for the CyQUANT assay to quantify absolute cell number in order to account for cell loss during washing/mixing steps. OCR values were normalized to absolute cell number determined by the CyQUANT assay. […] Baseline OCR values were calculated by averaging the first three OCR measurements (0-12 minutes) prior to injection of compounds, maximal OCR values were calculated by subtracting the average non-mitochondrial OCR values (OCR following rotenone/[…]) from the OCR values after the injection with the uncoupler FCCP, and respiratory reserve capacity values were calculated by subtracting baseline OCR values from OCR values after addition of FCCP. For the Glycolysis Stress Test, the glycolysis ECAR was calculated by subtracting the average non-glycolytic acidification values (after 2-DG) from the values after glucose administration, the glycolytic capacity was calculated by subtracting the non-glycolytic acidification ECAR values from ECAR values after addition of oligomycin, and the glycolytic reserve was calculated by subtracting the ECAR values after addition of glucose from the ECAR values after addition of oligomycin, according to the manufacturer's instructions.

[5] = Torin1 10, 50, 200 nM, days 11-18, FIG. 32

CCC(=O)N1CCN(c2ccc(-n3c(=O)ccc4cnc5ccc(-c6cnc7ccccc7c6)cc5c43)cc2C(F)(F)F)CC1 [Torin1]
RNA expression of ryanodine receptor (RyR) and SCN5a ([1]; FIG. 32): trend toward increased RNA expression
TNNI3 gene expression increase ([1]; Torin1 200 nM (highest dose tested), FIG. 30): ~10 fold
RNA expression of TNNT2, TNNI3, MYH6, MYH7 ([1]; Torin1 10, 50, 200 nM, days 11-18, FIG. 30): increased RNA expression of these proteins in a dose dependent manner
KCNJ2 expression [1, 5]: trend toward a dose-dependent increase
ion channel gene expression (KCNJ2, HCN4, SCN5a, RYR2, CACNA1c, SERCA2a) [1, 5]: Ion channel gene expression increased
NPPB (BNP) mRNA expression ([1]; Torin1 10, 50, 200 nM, days 11-18, FIG. 33): increased
PGC1-alpha (PPARGC1a) mRNA expression ([1]; Torin1 10, 50, 200 nM, days 11-18, FIG. 35): increased expression
REST/NRSF expression ([1]; dose-dependent, Torin1 10, 50, 200 nM, FIG. 34): increases gene expression for REST
RNA expression of markers of maturation including TNNI3 and KCNJ2 ([1]; preliminary data, after differentiation): increased RNA expression
expression of interleukin-8 (IL8) and SPP1 (osteopontin) [2]: significant decrease in expression
phosphorylation of AMP kinase (AMPK) ([3]; Torin1 200 nM, 0-48 h, BJRiPS-CMs, FIG. 17B): increased phosphorylation of AMP kinase (AMPK)
phosphorylation of S6K and Akt ([3]; Torin1 200 nM, single treatment, 0-48 h, BJRiPS-CMs): acutely decreased phosphorylation of both S6K and Akt
phosphorylation of ribosomal protein S6 ([3]; Torin1 10, 50, 200 nM at days 25-29 after lactate enrichment, FIG. 28): decreased phosphorylation of S6
normalized maximal OCR ([4]; Torin1 200 nM 7 days, BJRiPS-CMs, FIG. 3B): significant increase
ECAR from non-glycolytic acidification ([4]; Torin1 200 nM 7 days, FIG. 12C): decrease in ECAR from non-glycolytic acidification
extracellular acidification rate (ECAR) ([4]; Torin1 200 nM 7 days, FIGS. 12A-12B): trend toward decreased
maximal OCR ([4]; Torin1 7 days, Gibco iPSC-derived cardiomyocytes): significantly increases the maximal OCR
